In patent publication US20210308171A1, “METHODS FOR COMBINATORIAL SCREENING AND USE OF THERAPEUTIC TARGETS THEREOF” (THE BROAD INSTITUTE, INC., priority 2018, published 2021):

Legend:
[1] = system: MV4-11 (AML MLL-AF4) cells; assay: BRD4 inhibitor dose response +/- WDR77 KO; format: cell-based
Excerpt: FIG. 36—illustrates that WDR77 KO sensitizes MV4-11 (AML MLL-AF4) cells to AZD5153 treatment.

[2] = system: THP-1 (AML MLL-AF9) cells; assay: BRD4 inhibitor dose response +/- WDR77 KO
Experimental: JQ1 dose response+/−WDR77 KO. Octuplicate wells. Repeated with two sgRNAs.
The experiments were performed in octuplicate wells and repeated with two sgRNAs. FIGS. 35 and 36 show AZD5153 dose response curves in THP-1 and MV4-11 cells that are +/−WDR77 knock-out.

[3] = system: Meljuso, OVCAR8, and A549 cells; assay: Cell Titer Glo viability of cells transduced with single SaCas9 sgRNAs (MCL1, BCL2L1, BCL2L2 or controls) and treated with small molecule inhibitors; format: cell-based; conditions: 3 days; for synergy of small molecule with sgRNAs targeting MCL1 (cell viability): both sgRNAs targeting MCL1, dosed from 1 nM to 1 μM
Experimental: (b) Validation of genetic interactions with individual gene knockout combined with small molecules. Seven days after transduction with lentivirus expressing individual sgRNAs, cells were incubated with small molecules for three days before assaying viability by Cell Titer Glo. Points represent the average and whiskers represent the maximum and minimum of two replicate wells. […] Cells were incubated with small molecules for three days before assaying viability by Cell Titer Glo (top).
(a) As in FIG. 5b, cells were infected with individual sgRNAs and 7 days post-infection treated with small molecules over a range of doses. Cell viability was determined by Cell Titer Glo after 3 days.
Meljuso, OVCAR8, and A549 cells were transduced with single SaCas9 sgRNAs targeting MCL1, BCL2L1, or BCL2L2, or controls. […] Cells were dosed from 1 nM to 1 μM, and cell viability assessed (FIG. 5b, FIG. 15a).
Meljuso cells were transduced in 12-well plates, as described above, with lentivirus containing a single sgRNA targeting one of the anti-apoptotic genes (BCL2L1, BCL2L2, MCL1) or a control sgRNA either targeting CD81 or containing a run of 6 thymidines. Two days after transduction, cells were selected using puromycin at 1 μg/mL for five days. After puromycin selection, 3,000 cells were seeded into 96-well plates. Across each row of the 96-well plate, a different small molecule was added at 11 log 2-dilutions ranging from 1 μM to approximately 1 nM in duplicate for each of the cell lines. […] After 3 days in the presence of the small molecule, viability of the cell population was assayed by CellTiterGlo (Promega) according to the manufacturer's instructions.

[4] = system: Meljuso cells; assay: Apoptosis Big Papi library screen with inhibitors of anti-apoptotic proteins; format: cell-based, human; conditions: 250 nM, on/off dosing
Experimental: (e) In Meljuso cells with single gene knockouts, comparison of resistance and sensitization phenotypes for two small molecules. The fold change values are calculated relative to the no drug arm for targeting sgRNAs paired with the 6T and HPRT intron controls. Genes of interest are colored and labeled. (f) Buffering interactions in Meljuso cells for combinations of multidomain apoptotic genes with BH3-only sensitizer genes in different growth conditions. Data from the three small molecules were combined for the final column. Heat map scale is the same as in panel c. (g) Buffering interactions in Meljuso cells for combinations of pro-apoptotic genes and caspase genes in standard growth conditions and the combined data from the three small molecules. Heat map scale is the same as in panel c.
Applicants next analyzed Meljuso cells screened with inhibitors, first examining single gene effects.
To examine combinatorial phenotypes, Applicants combined data across the three BCL2L1 inhibitors, to minimize effects due to molecule-specific mechanism of action.
Infections were conducted as described above for the SynLet library. […] All small molecules were screened at 250 nM with an on/off dosing schedule, in which cells were treated with small-molecule for 4 days and then grown in standard growth conditions for 3 days, and then this cycle was repeated for an additional week. All arms were collected at 21 days post-infection. For Meljuso cells, all three replicates were prepared and sequenced separately.

[5] = system: 293T cells; assay: SaCas9 tiling library 6-thioguanine resistance screen; format: cell-based
Experimental: FIG. 10—Development of SaCas9 on-target rules. (a) Representation of all SaCas9 sgRNAs tested according to group and gene. sgRNAs are grouped based on whether the target gene is assayed by 6-thioguanine resistance, cell viability, or vemurafenib resistance. Control sgRNAs are also indicated. (b) Log 2 fold change of sgRNAs relative to their starting abundance in the plasmid DNA library in cell viability and resistance experiments. That knockout of NUDTS confers 6-thioguanine resistance in 293T cells but not A375 cell is expected based on previous results^16. P-values: Kruskal-Wallis test with Dunn's multiple comparisons test for each gene relative to the set of non-targeting controls. Significance labels: ns, not significant; *P<0.05; **P<0.01; ***P<0.001; ****P<0.0001.
Applicants designed a second tiling library with all sgRNAs with an NNGRR PAM that targeted 9 genes with known phenotypes in viability and drug resistance assays, a total of 5,327 sgRNAs, including controls (FIG. 10a). Applicants performed viability screens in three cell lines (A375, 293T, MOLM13), and screened relevant cell lines for 6-thioguanine (A375, 293T) and vemurafenib resistance (A375).

Structure (SMILES): COc1nnc2ccc(N3CCC(c4ccc(OCCN5CCN(C)C(=O)[C@H]5C)cc4)CC3)nn12 [AZD5153]
- effect of WDR77 KO on response to treatment [1]: sensitizes
- effect of WDR77 KO on response to treatment [2]: sensitizes

Structure (SMILES): Cc1c(-c2ccc(N3CCc4cccc(C(=O)Nc5nc6ccccc6s5)c4C3)nc2C(=O)O)cnn1CC12CC3CC(CC(C3)C1)C2 [A-1331852]
- synergy of small molecule with sgRNAs targeting MCL1 (cell viability) [3]: strongly synergized

Structure (SMILES): Cc1c(-c2c(-c3ccc(F)o3)sc3ncnc(O[C@H](Cc4ccccc4OCc4ccnn4CC(F)(F)F)C(=O)O)c23)ccc(OCCN2CCN(C)CC2)c1Cl [S63845]
- synergy of small molecule with sgRNAs targeting BCL2L1 (cell viability) ([3]; sgRNAs targeting BCL2L1, dosed from 1 nM to 1 μM): synergized specifically
- synergy with BCL2L1 knockout (single gene effect in screen) ([4]; relative to no drug arm): synergized

Structure (SMILES): CC1(C)CCC(c2ccc(Cl)cc2)=C(CN2CCN(c3ccc(C(=O)NS(=O)(=O)c4ccc(N[C@H](CCN5CCOCC5)CSc5ccccc5)c(S(=O)(=O)C(F)(F)F)c4)cc3)CC2)C1 [navitoclax]
- synergy of small molecule with sgRNAs targeting MCL1 (cell viability) [3]: strongly synergized
- effect of knockout of BAX and PMAIP1 (Noxa) on response to the small molecule [4]: resistance
- effect of knockout of BCL2A1 on response to the small molecule [4]: sensitized
- synergy with MCL1 knockout (single gene effect in screen) ([4]; relative to no drug arm): synergized

Structure (SMILES): Cc1sc2c(c1C)C(c1ccc(Cl)cc1)=N[C@@H](CC(=O)OC(C)(C)C)c1nnc(C)n1-2 [JQ1]
- effect of WDR77 KO on response to treatment [2]: sensitizes

Structure (SMILES): Nc1nc2nc[nH]c2c(=S)[nH]1 [6-thioguanine]
- effect of knockout of NUDTS on response to the drug [5]: resistance
